US6020341A, “Enediyne quinone imines and methods of preparation and use thereof” (priority 1997, dated 2000)
Where two headings read alike, the source gives them in different places.

How the values were obtained:
[1] = test system: Chinese hamster lung cells resistant to actinomycin D (DC-3F/ADII); assay: Cytotoxicity, DC-3F/ADII; type: cell-based; details: for IC50 / IC90: Cricetulus griseus, DC3F; for IC90: read-out: Cytotoxic Concentration IC90
Description: (§1) | cell growth by 50% (IC50) in μM.

[2] = test system: Lewis lung adenocarcinoma; assay: Anticancer activity in BDF mice bearing Lewis lung adenocarcinoma; type: in vivo, mouse
Protocol: ^a Tumor (4 × 10^6 cells) was inoculated S.C. Treatment
started on day 4, I.P., QDX5. Control had 4 mice and each dose had 3 mice
Tumor sizes were evaluated on day 7, day 10 and day 14 after beginning of […]

[3] = test system: Chinese hamster lung cells (DC-3F); assay: Cytotoxicity, DC-3F; type: cell-based; details: for IC50 / IC90: Cricetulus griseus, DC3F; for IC90: read-out: Cytotoxic Concentration IC90
Description: as §1

[4] = test system: Human breast adenocarcinoma cells (SK-Br-3); assay: Cytotoxicity, SK-Br-3; type: cell-based; details: for IC50 / IC90: Homo sapiens; for IC90: read-out: Cytotoxic Concentration IC90
Description: as §1

B-16 melanoma = assay: Antitumor activity against B-16 melanoma in mice (s.c. tumor, i.p. treatment); type: in vivo, mouse
Protocol: ^a Tumor (2 × 10^6 cells) was inoculated s.c. Treatment
started day 4, QD × 5, i.p.; control had nine mice, and each dose
two mice; tumor size was evaluated on Day 7 after the beginning of
started day 4, I.P., QD × 5; control had 3 mice, and each dose had
mice; Tumor size was evaluated on day 7 after the beginning of treatment.

833K solid tumor cells = assay: Growth inhibition, SRB assay, 833K; type: cell-based; details: Homo sapiens, Table 8, 833K
Protocol: Cells were platted on day 1, drug was added on day 2, and XTT assays (for HL-60, MT-2, MT-4 leukemic cells) or SRB assays (for 833K and SK-Br-3 solid tumor cells) were carried out on day 5.

solid tumor = assay: In vivo toxicity and efficacy in tumor bearing mice (Tables 5-7); set-up: species or system mouse; details: i.p., in words
CCRF-CEM/VM-1 cells = assay: Cytotoxicity, CCRF-CEM/VM-1; type: cell-based, human; details: for IC50 / IC90: Homo sapiens, CCRF-CEM; for IC90: read-out: Cytotoxic Concentration IC90
Description: as §1

[5] = Table 4, DC-3F/ADII, EQI-6 = (1)
[6] = Table 6, 0.2 mg/kg i.p. QD×5, day 7
[7] = Table 6, 0.5 mg/kg i.p. QD×5, day 7
[8] = Table 6, 2.0 mg/kg i.p. QD×5, day 7
[9] = Table 3, CCRF-CEM/VM-1, EQI-6 = (1)

Compound: CO[C@@]12[C@H](COC(N)=O)C3=C(C(=O)C(C)=C(N)C3=O)N1C[C@@H]1N[C@@H]12 [mitomycin C]
- IC50 ([1]; Table 2, DC-3F/ADII (MDR/Actinomycin D), read-out: concentration required to inhibit cell growth by 50% (IC50)): 113 nM
- IC50 ([1]; Table 4, DC-3F/ADII, read-out: Cytotoxic Concentration IC50): 113 nM
- IC90 ([1]; Table 4, DC-3F/ADII): 380 nM
- IC50 ([1]; Table 13, DC-3F/ADII, read-out: Cytotoxic Concentration IC50): 74 nM
- IC90 ([1]; Table 13, DC-3F/ADII): 264 nM
- Cytotoxic Concentration IC95 ([1]; Table 4, DC-3F/ADII): 575 nM
- ratio of IC50 to EQI-6 (in parentheses) [1, 5]: 92.2 ×
- ratio of IC90 to EQI-6 (in parentheses) [1, 5]: 24.7 ×
- ratio of IC95 to EQI-6 (in parentheses) [1, 5]: 26.9 ×
- Cytotoxic Concentration IC95 ([1]; Table 13, DC-3F/ADII): 406 nM
- tumor inhibition ([2]; 0.8 mg/kg i.p. QDx5, day 14, Lewis lung adenocarcinoma): 56.3%
- Average Tumor Volume (T/C) ([2]; Table 7, 0.4 mg/kg i.p. QDX5, Day 7): 0.490
- Average Tumor Volume (T/C) ([2]; Table 7, 0.4 mg/kg i.p. QDX5, Day 10): 0.411
- Average Tumor Volume (T/C) ([2]; Table 7, 0.4 mg/kg i.p. QDX5, Day 14): 0.515
- Average Tumor Volume (T/C) ([2]; Table 7, 0.8 mg/kg i.p. QDX5, Day 7): 0.356
- Average Tumor Volume (T/C) ([2]; Table 7, 0.8 mg/kg i.p. QDX5, Day 10): 0.363
- Average Tumor Volume (T/C) ([2]; Table 7, 0.8 mg/kg i.p. QDX5, Day 14): 0.437
- mortality ([2]; Table 7, 2.0 mg/kg i.p. QDX5): All of three mice died on day 8 or day 9
- Average Tumor Volume (T/C) ([2]; Table 7, 2.0 mg/kg i.p. QDX5, Day 7): 0.169
- IC50 ([3]; Table 2, DC-3F, read-out: concentration required to inhibit cell growth by 50% (IC50)): 81 nM
- IC50 ([3]; Table 4, DC-3F, read-out: Cytotoxic Concentration IC50): 81.2 nM
- IC90 ([3]; Table 4, DC-3F): 374 nM
- IC50 ([3]; Table 13, DC-3F, read-out: Cytotoxic Concentration IC50): 59 nM
- IC90 ([3]; Table 13, DC-3F): 166 nM
- Cytotoxic Concentration IC95 ([3]; Table 4, DC-3F): 629 nM
- ratio of IC50 to EQI-6 (in parentheses) ([3]; Table 4, DC-3F, EQI-6 = (1)): 45.1 ×
- ratio of IC90 to EQI-6 (in parentheses) ([3]; Table 4, DC-3F, EQI-6 = (1)): 34 ×
- ratio of IC95 to EQI-6 (in parentheses) ([3]; Table 4, DC-3F, EQI-6 = (1)): 31.6 ×
- Cytotoxic Concentration IC95 ([3]; Table 13, DC-3F): 235 nM
- IC50 ([4]; SK-BR-3, Table 2, SK-Br-3 (Breast), read-out: concentration required to inhibit cell growth by 50% (IC50)): 993 nM
- IC50 ([4]; SK-BR-3, Table 4, SK-Br-3, read-out: Cytotoxic Concentration IC50): 993 nM
- IC90 ([4]; SK-BR-3, Table 4, SK-Br-3): 21800 nM
- IC50 ([4]; SK-BR-3, Table 13, SK-Br-3, read-out: Cytotoxic Concentration IC50): 2340 nM
- IC90 ([4]; SK-BR-3, Table 13, SK-Br-3): 62900 nM
- Cytotoxic Concentration IC95 ([4]; Table 4, SK-Br-3): 62300 nM
- ratio of IC50 to EQI-6 (in parentheses) ([4]; Table 4, SK-Br-3, EQI-6 = (1)): 29.2 ×
- ratio of IC90 to EQI-6 (in parentheses) ([4]; Table 4, SK-Br-3, EQI-6 = (1)): 16.6 ×
- ratio of IC95 to EQI-6 (in parentheses) ([4]; Table 4, SK-Br-3, EQI-6 = (1)): 187.7 ×
- Cytotoxic Concentration IC95 ([4]; Table 13, SK-Br-3): 192890 nM
- tumor inhibition (B-16 melanoma; 0.5 mg/kg i.p. QDx5, B-16 melanoma): 24.6%
- AVE TUMOR VOLUME (T/C) (B-16 melanoma; [6]): 0.952
- AWC (average weight change) (B-16 melanoma; [6]): -1.9 g
- AVE TUMOR VOLUME (T/C) (B-16 melanoma; [7]): 0.756
- AWC (average weight change) (B-16 melanoma; [7]): -0.9 g
- AVE TUMOR VOLUME (T/C) (B-16 melanoma; [8]): 0.143
- AWC (average weight change) (B-16 melanoma; [8]): +0.4 g
- IC50 (833K solid tumor cells): 300 nM
- solid tumor growth inhibition / therapeutic efficacy (solid tumor): Therapeutic efficacy in mice for both appeared similar
- IC50 (CCRF-CEM/VM-1 cells; Table 2, CCRF/VM-1 (MDR/TopoII), read-out: concentration required to inhibit cell growth by 50% (IC50)): 216 nM
- IC50 (CCRF-CEM/VM-1 cells; Table 3, CCRF-CEM/VM-1, read-out: Cytotoxic Concentration IC50): 216 nM
- IC90 (CCRF-CEM/VM-1 cells; Table 3, CCRF-CEM/VM-1): 895 nM
- IC50 (CCRF-CEM/VM-1 cells; Table 14, CCRF-CEM/VM-1, read-out: Cytotoxic Concentration IC50): 113 nM
- IC90 (CCRF-CEM/VM-1 cells; Table 14, CCRF-CEM/VM-1): 675 nM
- Cytotoxic Concentration IC95 (CCRF-CEM/VM-1 cells; Table 3, CCRF-CEM/VM-1): 1373 nM
- ratio of IC50 to EQI-6 (in parentheses) (CCRF-CEM/VM-1 cells; [9]): 113.7 ×
- ratio of IC90 to EQI-6 (in parentheses) (CCRF-CEM/VM-1 cells; [9]): 45.5 ×
- ratio of IC95 to EQI-6 (in parentheses) (CCRF-CEM/VM-1 cells; [9]): 90.9 ×
- Cytotoxic Concentration IC95 (CCRF-CEM/VM-1 cells; Table 14, CCRF-CEM/VM-1): 1239 nM
